According to PubChem BioAssay (NCI):
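All cell lines were grown in 96-well plates and treated with compound for 48 hours. TGI: total growth inhibition.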

How the values were obtained:
Assay in all cases: growth of human tumour cells (NCI), 48 h
[1] = test system: 786-0 renal
[2] = test system: A549 NSCLC
[3] = test system: ACHN renal
[4] = test system: BT-549 breast
[5] = test system: CAKI-1 renal
[6] = test system: CCRF-CEM leukemia
[7] = test system: COLO 205 colon
[8] = test system: DU-145 prostate
[9] = test system: EKVX NSCLC
[10] = test system: HCC-2998 colon
[11] = test system: HCT-116 colon
[12] = test system: HCT-15 colon
[13] = test system: HL-60(TB) leukemia
[14] = test system: HOP-62 NSCLC
[15] = test system: HOP-92 NSCLC
[16] = test system: HS 578T breast
[17] = test system: HT29 colon
[18] = test system: IGROV1 ovarian
[19] = test system: K-562 leukemia
[20] = test system: KM12 colon
[21] = test system: LOX IMVI melanoma
[22] = test system: M14 melanoma
[23] = test system: MCF7 breast
[24] = test system: MDA-MB-231 breast
[25] = test system: MDA-MB-435
[26] = test system: MDA-N
[27] = test system: MOLT-4 leukemia
[28] = test system: NCI-H460 lung
[29] = test system: NCI/ADR-RES ovarian
[30] = test system: OVCAR-3 ovarian
[31] = test system: OVCAR-4 ovarian
[32] = test system: OVCAR-5 ovarian
[33] = test system: OVCAR-8 ovarian
[34] = test system: PC-3 prostate
[35] = test system: RPMI-8226 leukemia
[36] = test system: RXF 393 renal
[37] = test system: SF-268 CNS
[38] = test system: SF-295 CNS
[39] = test system: SF-539 CNS
[40] = test system: SK-MEL-2 melanoma
[41] = test system: SK-MEL-28 melanoma
[42] = test system: SK-MEL-5 melanoma
[43] = test system: SK-OV-3 ovarian
[44] = test system: SN12C renal
[45] = test system: SNB-19 CNS
[46] = test system: SNB-75 CNS
[47] = test system: SR leukemia
[48] = test system: SW-620 colon
[49] = test system: T-47D breast
[50] = test system: TK-10 renal
[51] = test system: U251 CNS
[52] = test system: UACC-257 melanoma
[53] = test system: UACC-62 melanoma
[54] = test system: UO-31 renal
[55] = test system: A498 renal
[56] = test system: MALME-3M melanoma
[57] = test system: NCI-H23 lung
[58] = test system: NCI-H522 lung

Measured: TGI

Cc1cc2nc(N3C(=O)/C(=C/Cc4ccco4)N=C3c3ccccc3)sc2cc1C
50.5 µM: [25]
30 µM: [26]
55.7 µM: [10]
76.5 µM: [17]
28.1 µM: [6]
46.1 µM: [13]
59.9 µM: [46]
54 µM: [11] | [34]
96.3 µM: [3]
60.5 µM: [15]
96.6 µM: [1]
40.4 µM: [23]
59.1 µM: [36]
87.9 µM: [44]
not listed: [55] | [56] | [57] | [58]
> 100 µM: all other assays above

O=C1/C(=C\c2cccc(Oc3ccccc3)c2)SC(c2ccccc2)N1c1cc(Cl)ccc1Cl (stereo unspecified)
48.1 µM: [13]
89.7 µM: [56]
74.4 µM: [15]
38.2 µM: [21]
3.62 µM: [6]
88.5 µM: [39]
58.6 µM: [37]
75.9 µM: [16]
48.9 µM: [44]
52.7 µM: [11]
84.4 µM: [22]
53 µM: [58]
77.4 µM: [30]
45.5 µM: [26]
76.5 µM: [1] | [36]
98.7 µM: [35]
41.6 µM: [48]
57 µM: [33]
not listed: [47]
> 100 µM: all other assays above
